This note sets out measurements from publication PMC5007443, “TNIK inhibition abrogates colorectal cancer stemness” (Nature Communications, 2016).

One assay concerns HCT116 xenografts. Nature of the assay: HCT116 xenograft growth in BALB/c-nu/nu mice. It counts as in vivo, mouse. The conditions noted are these: oral, 40 or 80 mg kg−1 BID, 14 days. The method, then: Five million HCT116 cells suspended in medium containing 25% Matrigel (BD Biosciences) were inoculated into the subcutaneous tissues of 9-week-old female BALB/c nude mice. When the tumour volume reached ∼80 mm^3, the mice were randomized according to tumour volume (9 mice per group).
(§1) Tumour volume was estimated based on the formula: (length × width^2)/2. The tumour volume (twice a week) and body weight (every day) of each mouse were recorded. The patient-derived spheroids and xenografts were established after obtaining informed consent from the donors.

Assay [1] relates to patient-derived colon cancer spheroid #19 xenograft. Put plainly: Xenograft of patient-derived spheroid #19 in NOD/ShiJic-scid mice. It counts as in vivo, mouse. The conditions noted are these: NCB-0846 HCl oral 50 or 100 mg kg−1 BID, 6-days-on, 1-day-off.
Source text: (§2) Patient-derived colorectal cancer spheroids were dissociated, resuspended in medium containing 50% Matrigel (Corning), and inoculated subcutaneously (#6; 1 × 10^4 cells per injection, #19; 1 × 10^5 cells per injection) into the flank of female NOD/ShiJic-scid mice (4-week-old females; CLEA Japan). When the tumour volume reached ∼200 mm^3, the mice were randomized according tumour volume (10 mice per group) and treatment was started.
as §1

A further assay has as its system PDX COX026. Nature of the assay: Patient-derived xenograft COX026 in Nu/Nu nude mice. It counts as in vivo, mouse. The conditions noted are these: COX026, NCB-0846 HCl oral 45 or 90 mg/kg BID, 5-day on, 2-day off. On the procedure: (§3) Patient-derived colorectal cancer xenografts […] were established by Shanghai ChemPartner. Female Nu/Nu nude mice aged 5–6 weeks were implanted subcutaneously with the xenografts and randomized into three treatment groups (10 mice per group) based on the developed tumour volume (∼200 mm^3).
as §1
(Xenograft models place foreign cells or tissue in a host animal.)

The subject of assay [2] is Wnt target genes (AXIN2, MYC, CCND1) and TNIK. Nature of the assay: RT-PCR of TNIK and Wnt target genes in HCT116 cells. It counts as cell-based, human. To be noted: HCT116, 24 h. The method, then: Total RNA was prepared with an RNeasy Mini Kit (Qiagen). cDNA was synthesized using SuperScript II reverse transcriptase (Thermo Fisher Scientific) or a High-Capacity cDNA reverse transcription kit (Thermo Fisher Scientific) and subjected to TaqMan gene expression assay using pre-designed primer and probe sets (listed in Supplementary Table 3). Amplification data measured as an increase in reporter fluorescence were collected using the StepOne Real-Time PCR System (Thermo Fisher Scientific). The relative mRNA expression level normalized to the internal control (human/mouse β-actin (ACTB/Actb1) gene) was calculated by the comparative threshold cycle (CT) method. Experiments were performed in triplicate and repeated at least two times.

The test system of assay [3] is HCT116 cells. Put plainly: PARP-1 cleavage, immunoblotting. To be noted: HCT116, 1 μM, 24 or 48 h. It counts as cell-based, human. On the procedure: Protein samples were fractionated by SDS–PAGE and blotted onto Immobilon-P membranes (Millipore) as described previously. After incubation with the primary antibodies (listed in Supplementary Table 4) at 4 °C overnight, the blots were detected with the relevant horseradish peroxidase-conjugated anti-mouse or anti-rabbit IgG antibody (Cell Signaling Technology) and Western lighting ECL Pro (PerkinElmer). Signals were visualized with the LAS-4010 system (GE Healthcare). Uncropped versions of the blots in Figs 2e and 3f are shown in Supplementary Fig. 15.
For orientation: In western blotting, separated proteins are transferred to a membrane and probed.

The subject of assay [4] is HCT116 cells. Nature of the assay: CSC surface marker flow cytometry in HCT116 cells. It counts as cell-based, human. The conditions noted are these: HCT116, 1 µM, 96 hours. On the procedure:
Cells were collected with Accutase, washed with stain buffer (BD Pharmingen), resuspended in 100 μl stain buffer (5 × 10^5 cells per 100 μl), and incubated with fluorophore-conjugated antibodies or their corresponding isotype-matched control antibodies (Supplementary Table 4) at 4 °C for 30 min. The cells were then washed twice and resuspended in 500 μl of stain buffer. 7-Aminoactinomycin D (7AAD; BD Pharmingen) was added to the samples before analysis. Relative fluorescence intensities were measured using a Guava easy Cyte HT flow cytometer following exclusion of dead cells on the basis of 7AAD incorporation. Data analysis was performed using Guava InCyte software (Merck-Millipore). Experiments were performed in triplicate and repeated at least two times.

Assay [5] relates to patient-derived colon cancer spheroid #6 xenograft. Nature of the assay: Xenograft of patient-derived spheroid #6 in NOD/ShiJic-scid mice. It counts as in vivo, mouse. The conditions noted are these: NCB-0846 HCl oral 50 or 100 mg kg−1 BID, 6-days-on, 1-day-off.
Source text: as §2, §1

In a further assay the test system is PDX COX021. Nature of the assay: Patient-derived xenograft COX021 in Nu/Nu nude mice. It counts as in vivo, mouse. The conditions noted are these: COX021, NCB-0846 HCl oral 45 or 90 mg/kg BID, 5-day on, 2-day off. On the procedure: as §3, §1
Assay [6] deals with CD44 and Ki67 expression in xenografts. Put plainly: Immunohistochemistry of spheroid #6 xenografts. It counts as in vivo, mouse. To be noted: spheroid #6 xenografts resected after treatment. On the procedure: Immunoperoxidase staining (Fig. 6g) was performed using the Ventana DABMap detection kit and an automated slide stainer (Discovery XT, Ventana Medical Systems)[56].

`O[C@H]1CC[C@@H](Oc2cccc3cnc(Nc4ccc5nc[nH]c5c4)nc23)CC1` [NCB-0846, cis-4-(2-(3H-benzo[d]imidazol-5-ylamino)quinazolin-8-yloxy)cyclohexanol]: in the assay on HCT116 xenografts, the growth of tumours result is “suppressed”. The growth of tumours result in assay [1] is reported as “suppressed”. For the same compound, the “growth of the PDXs” value with PDX COX026 is “significantly suppressed”. In [2], the “expression of AXIN2 gene” value was “reduced”, the “expression of CCND1 gene” value is given as “not affected”, the “expression of MYC gene” value is reported as “reduced” and the “expression of TNIK gene” value is given as “reduced”. The “Cleavage of PARP-1” value in the assay on HCT116 cells [3] was “induction of apoptosis”. In addition, the “proportion of cells showing high expression of CSC surface markers (CD44, CD133, CD166, CD29 and EpCAM)” value in the assay with HCT116 cells [4] was “reduced”. The growth of tumours entry in [5] is reported as “suppressed”. The “growth of the PDXs” value in the assay on PDX COX021 is reported as “significantly suppressed”. Also, in [6], the “CD44 expression in xenografts” value is “suppression” and the “Ki67 expression in xenografts” value was “modest decrease”.
